# Legend:
# [1] = Dry Sympatec PSD analysis (particle size distribution); format: physicochemical; conditions: after isolation
# From the text: Particle size or particle diameter as used herein can be suitably determined by laser diffraction based methods, for example as described in ISO Standard 13320-1. Laser diffraction particle sizing apparatus such as the Malvern Mastersizer 2000™ can be used.
# [2] = Effect of humidity on prolonged storage: 20% relative humidity for 48 hours; DVS, DSC, TGA, PSD, SEM; format: physicochemical; conditions: for DVS mass plot, change of mass during storage: 20% RH, 48 hours; for Particle Size, cumulative distribution Q3 X10, post-storage sample / Particle Size, cumulative distribution Q3 X50, post-storage sample / Particle Size, cumulative distribution Q3 X90, post-storage sample: dry Sympatec PSD
# Description: In order to evaluate the effect of humidity on prolonged storage, processed BDP heptane solvate was subjected to 20% relative humidity (RH) for 48 hours.
# The sample recovered after storage was analysed by DSC, TGA, PSD and SEM.
# In order to evaluate the effect of humidity on prolonged storage processed BDP hydrate was subjected to 20% relative humidity (RH) for 48 hours.
smiles,measurement,setting,value
"CCC(=O)OCC(=O)[C@@]1(OC(=O)CC)[C@@H](C)C[C@H]2[C@@H]3CCC4=CC(=O)C=C[C@]4(C)[C@@]3(Cl)[C@@H](O)C[C@@]21C.O [Comparative Example 1, beclomethasone diproprionate, reference compound]","Particle Size, cumulative distribution Q3 X10",[1],0.84 μ
same,"Particle Size, cumulative distribution Q3 X50",[1],3.58 μ
same,"Particle Size, cumulative distribution Q3 X90",[1],8.76 μ
same,"Particle size distribution, result in words",[1],mostly ˜4 μm particles alongside larger clusters or agglomerates larger than 20 μm
"CCC(=O)OCC(=O)[C@@]1(OC(=O)CC)[C@@H](C)C[C@H]2[C@@H]3CCC4=CC(=O)C=C[C@]4(C)[C@@]3(Cl)[C@@H](O)C[C@@]21C.O [Comparative Example 2, beclomethasone diproprionate, reference compound]","Particle Size, cumulative distribution Q3 X10",[1],1.78 μ
same,"Particle Size, cumulative distribution Q3 X50",[1],8.10 μ
same,"Particle Size, cumulative distribution Q3 X90",[1],15.10 μ
"CCC(=O)OCC(=O)[C@@]1(OC(=O)CC)[C@@H](C)C[C@H]2[C@@H]3CCC4=CC(=O)C=C[C@]4(C)[C@@]3(Cl)[C@@H](O)C[C@@]21C.O [Example 1, beclomethasone diproprionate]","DVS mass plot, change of mass during storage",[2]; listed as processed BDP heptane,maintained full stability in terms of change of mass
same,"Particle Size, cumulative distribution Q3 X10, post-storage sample",[2]; after 20% RH for 48 hours,0.68 μ
same,"Particle Size, cumulative distribution Q3 X50, post-storage sample",[2]; after 20% RH for 48 hours,2.44 μ
same,"Particle Size, cumulative distribution Q3 X90, post-storage sample",[2]; after 20% RH for 48 hours,5.29 μ
same,"DSC trace of stored sample, thermal behaviour post-humidity treatment","[2]; after 20% RH for 48 hours, listed as BDP heptane solvate",no variation in the thermal behaviour
same,"Particle Size, cumulative distribution Q3 X10",[1],0.69 μ
same,"Particle Size, cumulative distribution Q3 X50",[1],2.41 μ
same,"Particle Size, cumulative distribution Q3 X90",[1],4.67 μ
same,"Particle size distribution, result in words",[1],within the inhalation range
"CCC(=O)OCC(=O)[C@@]1(OC(=O)CC)[C@@H](C)C[C@H]2[C@@H]3CCC4=CC(=O)C=C[C@]4(C)[C@@]3(Cl)[C@@H](O)C[C@@]21C.O [Example 3, beclomethasone diproprionate]",Time to steady state of sample mass (DVS),[2]; 20% RH storage,about 1500 minutes
same,"DVS mass plot, change of mass during storage",[2],initially underwent considerable weight loss due to partial dehydration
same,"DSC trace of stored sample, thermal behaviour post-humidity treatment",[2]; after 20% RH for 48 hours,no variation in the thermal behavior
same,PSD variation of particle size after storage,[2]; after 20% RH for 48 hours,no significant variation of particle size
same,"Particle Size, cumulative distribution Q3 X10, post-storage sample",[2]; after 20% RH for 48 hours,0.51 μ
same,"Particle Size, cumulative distribution Q3 X50, post-storage sample",[2]; after 20% RH for 48 hours,1.37 μ
same,"Particle Size, cumulative distribution Q3 X90, post-storage sample",[2]; after 20% RH for 48 hours,2.95 μ
same,"Particle Size, cumulative distribution Q3 X10",[1],0.51 μ
same,"Particle Size, cumulative distribution Q3 X50",[1],1.35 μ
same,"Particle Size, cumulative distribution Q3 X90",[1],3.17 μ
same,"Particle size distribution, result in words",[1],well within the inhalation range

# Reference: patent US20120148638A1, “Steroid Solavates” (BREATH LIMITED, priority 2009, published 2012)
